Values quoted from earlier work, collected in US8877241B2 (Egalet Ltd., priority 2003, dated 2014).

Conditions: single dose of 10 mg oral morphine, plain tablet composition

CN1CC[C@]23c4c5ccc(O)c4O[C@H]2[C@@H](O)C=C[C@H]3[C@H]1C5 [morphine]
average duration of action: 4 to 5 h
